Assay [1] concerns the target Phosphatidylinositol 4,5-bisphosphate 3-kinase catalytic subunit gamma isoform (Homo sapiens) (UniProt P48736). The experiment in a line: Selectivity interaction (Adapta Assay) EUB0001632a PIK3CG. As to conditions: at 10 µM.
Assay [2] has as its target Tyrosine-protein kinase Blk (Homo sapiens) (UniProt P51451). Description: Selectivity interaction (Kinase panel (Z-LYTE Assay)) EUB0001632a BLK. As to conditions: at 10 µM.
In assay [3] the target is Ephrin type-A receptor 4 (Homo sapiens, UniProt P54764). Description: Selectivity interaction (Ambit KINOMEscan and KiNATiv profiling in Jurkat cells) EUB0000090b EPHA4. The assay is classed as cell-based. As to conditions: at 1 µM.
The target in assay [4] is Cyclin-dependent kinase 8 (Homo sapiens, UniProt P49336). The experiment in a line: Selectivity interaction (KinomeScan (DiscoverX)) EUB0000666a CDK8. The note with it: at 10 µM.
The target of assay [5] is Serine/threonine-protein kinase PLK2 (Homo sapiens, UniProt Q9NYY3). Description: Selectivity interaction (KinomeScan (DiscoverX)) EUB0000666a PLK2. The note with it: at 10 µM.
Assay [6] concerns the target T1, Histone-lysine N-methyltransferase SMYD3 (Homo sapiens) (UniProt Q9H7B4).
T1 sequence (whole entry): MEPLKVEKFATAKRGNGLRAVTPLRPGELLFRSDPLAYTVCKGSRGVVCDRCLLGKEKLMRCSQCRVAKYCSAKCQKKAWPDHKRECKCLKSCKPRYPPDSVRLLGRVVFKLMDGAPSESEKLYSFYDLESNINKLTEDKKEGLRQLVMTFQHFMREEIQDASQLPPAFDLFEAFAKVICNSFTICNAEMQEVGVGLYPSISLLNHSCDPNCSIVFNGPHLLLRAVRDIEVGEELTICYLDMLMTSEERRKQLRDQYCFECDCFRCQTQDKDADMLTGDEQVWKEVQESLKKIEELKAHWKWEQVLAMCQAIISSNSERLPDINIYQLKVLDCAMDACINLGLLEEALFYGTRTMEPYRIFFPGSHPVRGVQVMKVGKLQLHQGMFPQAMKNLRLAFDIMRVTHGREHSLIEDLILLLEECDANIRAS
Description: Selectivity interaction (Methyltransferase screen (Scintillation proximity assays)) EUB0000255b SMYD3. (SPA uses beads or plates that emit light when radiolabelled molecules are held near them.)

Assay [7] deals with Mitogen-activated protein kinase kinase kinase 4 (Homo sapiens) (UniProt Q9Y6R4). The experiment in a line: Selectivity interaction (ActivX KiNativ screen (ex vivo kinase selectivity in human PBMCs)) EUB0001619a MAP3K4. The assay is classed as cell-based. The note with it: PBMC, at 1 µM.
Assay [8] addresses Vascular endothelial growth factor receptor 3 (Homo sapiens, UniProt P35916). Description: Selectivity interaction (KinomeScan (DiscoverX)) EUB0001049a FLT4. As to conditions: at 1 µM.
Assay [9] concerns the target T2, Atypical kinase COQ8B, mitochondrial (Homo sapiens) (UniProt Q96D53).
T2 sequence (whole entry): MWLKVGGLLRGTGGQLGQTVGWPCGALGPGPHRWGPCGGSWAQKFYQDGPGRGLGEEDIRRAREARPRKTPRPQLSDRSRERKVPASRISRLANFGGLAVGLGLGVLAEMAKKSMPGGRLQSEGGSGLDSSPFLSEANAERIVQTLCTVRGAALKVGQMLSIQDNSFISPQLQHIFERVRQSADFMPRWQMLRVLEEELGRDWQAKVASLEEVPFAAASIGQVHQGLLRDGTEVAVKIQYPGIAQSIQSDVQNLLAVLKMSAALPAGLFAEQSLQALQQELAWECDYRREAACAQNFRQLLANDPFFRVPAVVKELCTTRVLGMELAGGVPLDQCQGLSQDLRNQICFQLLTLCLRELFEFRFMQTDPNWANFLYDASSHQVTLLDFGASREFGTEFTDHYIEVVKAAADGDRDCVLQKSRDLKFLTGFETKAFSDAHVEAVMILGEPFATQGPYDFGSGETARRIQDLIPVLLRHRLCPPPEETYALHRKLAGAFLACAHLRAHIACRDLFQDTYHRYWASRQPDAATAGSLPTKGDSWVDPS
The experiment in a line: Selectivity interaction (KinomeScan (DiscoverX)) EUB0001049a ADCK4. The note with it: at 1 µM.

Assay [10] deals with Prostaglandin E2 receptor EP2 subtype (Homo sapiens) (UniProt P43116). Description: Selectivity interaction (Eurofins CEREP Diversity Profile (receptors and ion channels)) EUB0000279b PTGER2. The note with it: at 10 µM.
Assay [11] deals with Serine/threonine-protein kinase tousled-like 2 (Homo sapiens) (UniProt Q86UE8). The experiment in a line: Selectivity interaction (KinomeScan (DiscoverX)) EUB0000092b TLK2. As to conditions: at 10 µM.

In ChEMBL document CHEMBL5465560, “Selectivity Literature for EUbOPEN Chemogenomic Library” (2024) one finds % of inhibition, % of control and % activity data, which are given here for 8 compounds.

Sequence of Mitogen-activated protein kinase kinase kinase 4 (Homo sapiens) (Q9Y6R4 whole entry): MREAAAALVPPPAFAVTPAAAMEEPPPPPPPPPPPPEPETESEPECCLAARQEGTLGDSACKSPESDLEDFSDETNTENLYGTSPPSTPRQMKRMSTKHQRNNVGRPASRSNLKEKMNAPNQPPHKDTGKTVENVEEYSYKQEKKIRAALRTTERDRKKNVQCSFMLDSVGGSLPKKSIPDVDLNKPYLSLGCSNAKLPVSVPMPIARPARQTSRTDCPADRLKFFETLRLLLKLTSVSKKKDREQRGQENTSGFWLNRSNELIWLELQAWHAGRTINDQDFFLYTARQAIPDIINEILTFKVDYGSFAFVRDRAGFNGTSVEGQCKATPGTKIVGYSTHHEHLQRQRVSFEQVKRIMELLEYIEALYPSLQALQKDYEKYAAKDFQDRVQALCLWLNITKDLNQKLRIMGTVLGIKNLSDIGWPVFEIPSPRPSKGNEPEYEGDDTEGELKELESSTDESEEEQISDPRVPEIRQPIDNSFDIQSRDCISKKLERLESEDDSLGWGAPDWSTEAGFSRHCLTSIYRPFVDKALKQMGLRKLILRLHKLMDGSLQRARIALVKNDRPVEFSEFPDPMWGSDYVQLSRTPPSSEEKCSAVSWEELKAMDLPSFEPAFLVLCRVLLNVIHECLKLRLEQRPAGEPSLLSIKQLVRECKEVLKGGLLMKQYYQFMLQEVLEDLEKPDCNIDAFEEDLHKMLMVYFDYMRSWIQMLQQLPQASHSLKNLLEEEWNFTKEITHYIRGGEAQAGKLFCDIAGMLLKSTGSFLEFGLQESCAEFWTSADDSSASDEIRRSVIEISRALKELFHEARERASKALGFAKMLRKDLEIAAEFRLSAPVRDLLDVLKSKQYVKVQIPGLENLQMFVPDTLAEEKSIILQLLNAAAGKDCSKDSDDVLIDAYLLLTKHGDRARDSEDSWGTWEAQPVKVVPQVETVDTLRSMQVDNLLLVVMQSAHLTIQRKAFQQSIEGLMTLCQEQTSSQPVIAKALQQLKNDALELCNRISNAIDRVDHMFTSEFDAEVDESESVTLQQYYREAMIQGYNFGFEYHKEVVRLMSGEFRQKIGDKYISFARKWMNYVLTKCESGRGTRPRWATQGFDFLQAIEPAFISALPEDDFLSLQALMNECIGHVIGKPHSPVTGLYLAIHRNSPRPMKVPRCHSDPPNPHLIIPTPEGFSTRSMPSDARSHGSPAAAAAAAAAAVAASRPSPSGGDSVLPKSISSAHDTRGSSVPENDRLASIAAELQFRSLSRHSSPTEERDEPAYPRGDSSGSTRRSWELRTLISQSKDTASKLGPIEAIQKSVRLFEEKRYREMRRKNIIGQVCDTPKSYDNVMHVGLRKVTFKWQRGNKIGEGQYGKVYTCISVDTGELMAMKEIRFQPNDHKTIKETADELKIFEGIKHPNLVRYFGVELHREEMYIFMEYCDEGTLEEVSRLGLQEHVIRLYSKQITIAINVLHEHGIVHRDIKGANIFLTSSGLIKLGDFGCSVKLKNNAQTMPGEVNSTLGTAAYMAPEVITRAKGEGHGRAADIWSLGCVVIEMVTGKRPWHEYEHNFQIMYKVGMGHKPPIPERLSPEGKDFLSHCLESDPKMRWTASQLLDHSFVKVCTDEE
Sequence of Cyclin-dependent kinase 8 (P49336 whole entry): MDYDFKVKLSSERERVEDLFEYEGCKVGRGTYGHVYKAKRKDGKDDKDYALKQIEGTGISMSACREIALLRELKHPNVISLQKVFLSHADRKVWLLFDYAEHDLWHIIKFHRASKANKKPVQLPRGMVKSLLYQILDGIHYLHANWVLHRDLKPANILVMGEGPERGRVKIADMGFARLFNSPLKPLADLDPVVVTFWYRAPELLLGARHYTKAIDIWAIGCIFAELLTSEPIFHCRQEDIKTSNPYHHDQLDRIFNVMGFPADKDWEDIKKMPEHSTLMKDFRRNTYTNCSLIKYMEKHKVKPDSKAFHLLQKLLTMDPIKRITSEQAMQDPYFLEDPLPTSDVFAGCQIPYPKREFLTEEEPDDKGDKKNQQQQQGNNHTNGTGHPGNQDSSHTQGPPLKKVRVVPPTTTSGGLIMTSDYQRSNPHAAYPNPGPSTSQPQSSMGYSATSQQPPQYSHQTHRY
Sequence of Serine/threonine-protein kinase tousled-like 2 (Homo sapiens) (Q86UE8 whole entry, looked up): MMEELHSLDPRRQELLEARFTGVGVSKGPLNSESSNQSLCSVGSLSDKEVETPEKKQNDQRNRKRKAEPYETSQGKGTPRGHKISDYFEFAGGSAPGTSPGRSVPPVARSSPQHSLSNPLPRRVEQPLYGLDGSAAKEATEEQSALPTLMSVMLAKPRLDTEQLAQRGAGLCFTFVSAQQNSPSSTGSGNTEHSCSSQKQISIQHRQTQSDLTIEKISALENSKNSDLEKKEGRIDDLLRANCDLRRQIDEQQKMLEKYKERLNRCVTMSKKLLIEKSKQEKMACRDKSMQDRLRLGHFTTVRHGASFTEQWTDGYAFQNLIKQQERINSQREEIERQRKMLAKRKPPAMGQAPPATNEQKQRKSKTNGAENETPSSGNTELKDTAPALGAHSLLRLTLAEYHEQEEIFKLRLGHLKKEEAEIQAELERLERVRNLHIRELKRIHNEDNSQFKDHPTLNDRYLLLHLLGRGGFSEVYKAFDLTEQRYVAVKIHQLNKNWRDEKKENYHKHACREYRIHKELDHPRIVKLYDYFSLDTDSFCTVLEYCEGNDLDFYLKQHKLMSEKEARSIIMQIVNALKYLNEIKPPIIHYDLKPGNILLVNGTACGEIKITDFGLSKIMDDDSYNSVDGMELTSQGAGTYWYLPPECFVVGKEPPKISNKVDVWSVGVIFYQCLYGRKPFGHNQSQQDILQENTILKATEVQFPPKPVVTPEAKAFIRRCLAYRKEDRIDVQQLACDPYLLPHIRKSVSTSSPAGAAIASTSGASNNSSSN
Sequence of Vascular endothelial growth factor receptor 3 (P35916 whole entry): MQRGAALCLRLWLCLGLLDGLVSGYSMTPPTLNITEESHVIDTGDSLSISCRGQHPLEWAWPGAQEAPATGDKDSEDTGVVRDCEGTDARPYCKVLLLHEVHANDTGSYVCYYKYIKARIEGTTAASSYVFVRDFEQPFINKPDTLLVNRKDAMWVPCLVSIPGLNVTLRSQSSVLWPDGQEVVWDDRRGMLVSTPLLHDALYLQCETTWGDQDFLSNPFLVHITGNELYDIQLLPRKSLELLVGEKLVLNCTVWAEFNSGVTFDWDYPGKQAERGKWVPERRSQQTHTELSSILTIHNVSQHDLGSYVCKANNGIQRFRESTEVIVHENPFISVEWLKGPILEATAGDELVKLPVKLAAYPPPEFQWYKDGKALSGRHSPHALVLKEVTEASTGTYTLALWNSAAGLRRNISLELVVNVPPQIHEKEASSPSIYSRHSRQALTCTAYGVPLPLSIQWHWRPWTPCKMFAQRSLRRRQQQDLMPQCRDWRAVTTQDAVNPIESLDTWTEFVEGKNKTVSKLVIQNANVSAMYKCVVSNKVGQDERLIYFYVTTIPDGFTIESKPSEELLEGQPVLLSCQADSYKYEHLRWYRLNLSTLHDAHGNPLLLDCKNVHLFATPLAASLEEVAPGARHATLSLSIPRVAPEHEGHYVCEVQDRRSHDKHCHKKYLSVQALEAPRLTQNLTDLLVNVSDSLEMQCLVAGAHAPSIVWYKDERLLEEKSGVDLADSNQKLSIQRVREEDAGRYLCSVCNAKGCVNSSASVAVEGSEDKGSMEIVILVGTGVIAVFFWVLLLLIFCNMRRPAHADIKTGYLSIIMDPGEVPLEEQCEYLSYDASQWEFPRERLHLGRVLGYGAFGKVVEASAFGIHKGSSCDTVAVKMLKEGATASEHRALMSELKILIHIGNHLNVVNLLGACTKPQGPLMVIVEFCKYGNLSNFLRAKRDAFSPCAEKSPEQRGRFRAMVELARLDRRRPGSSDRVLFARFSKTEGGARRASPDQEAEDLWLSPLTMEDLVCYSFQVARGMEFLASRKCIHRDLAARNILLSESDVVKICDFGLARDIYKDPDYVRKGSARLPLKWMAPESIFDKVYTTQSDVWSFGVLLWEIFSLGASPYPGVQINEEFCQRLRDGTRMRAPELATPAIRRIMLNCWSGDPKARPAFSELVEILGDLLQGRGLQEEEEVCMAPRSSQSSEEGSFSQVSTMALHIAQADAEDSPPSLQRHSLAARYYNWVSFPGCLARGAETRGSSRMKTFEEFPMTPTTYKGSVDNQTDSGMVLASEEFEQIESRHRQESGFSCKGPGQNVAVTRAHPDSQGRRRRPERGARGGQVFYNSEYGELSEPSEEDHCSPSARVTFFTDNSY
Sequence of Serine/threonine-protein kinase PLK2 (Q9NYY3 whole entry, looked up): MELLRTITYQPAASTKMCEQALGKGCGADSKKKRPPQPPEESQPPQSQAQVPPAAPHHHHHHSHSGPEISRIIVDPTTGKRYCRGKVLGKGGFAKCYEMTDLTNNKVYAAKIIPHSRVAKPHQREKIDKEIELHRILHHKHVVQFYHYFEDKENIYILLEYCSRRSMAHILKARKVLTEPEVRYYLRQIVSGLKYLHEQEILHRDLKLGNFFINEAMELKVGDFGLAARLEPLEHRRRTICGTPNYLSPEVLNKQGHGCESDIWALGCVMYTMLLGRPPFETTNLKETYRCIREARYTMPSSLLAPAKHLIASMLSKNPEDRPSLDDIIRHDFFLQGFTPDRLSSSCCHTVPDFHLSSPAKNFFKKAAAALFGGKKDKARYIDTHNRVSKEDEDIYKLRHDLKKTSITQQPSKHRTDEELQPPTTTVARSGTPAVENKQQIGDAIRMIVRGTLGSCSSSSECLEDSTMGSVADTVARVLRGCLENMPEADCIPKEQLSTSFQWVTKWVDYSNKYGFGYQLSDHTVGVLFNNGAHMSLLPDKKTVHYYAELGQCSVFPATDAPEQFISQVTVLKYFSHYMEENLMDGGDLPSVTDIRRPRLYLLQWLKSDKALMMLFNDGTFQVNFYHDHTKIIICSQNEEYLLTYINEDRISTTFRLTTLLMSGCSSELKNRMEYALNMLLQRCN

For the compound `Cn1cc(-n2cnc3c(NCc4nc5cc(Cl)c(Cl)cc5[nH]4)nc(N4CCOCC4)nc32)cn1`, the % of inhibition in assay [1] was 29.5%. Also, the % of control in assay [2] amounted to 6.49%.

In assay [3], `CN(C)C/C=C/C(=O)Nc1ccc(C(=O)N2CCCC(Nc3ncc(Cl)c(-c4c[nH]c5ccccc45)n3)C2)cc1` (configuration not stated) returned a % of control of 98%.

For the compound `O=C(NOC[C@H](O)CO)c1ccc(F)c(F)c1Nc1ccc(I)cc1F`, the % of control in assay [4] and in assay [5] was 100% throughout.

For the compound `COCCN1CCC(c2cc(CN(C)C(=O)c3cccc(Oc4ccccc4)c3)ccn2)CC1`, the % activity in [6] (at 1 µM) was over 95%; in assay [6] (at 10 µM), 83%.

Consider `N#Cc1cccc(-c2c[nH]c3ncnc(N4CCOCC4)c23)c1`, for which the % of inhibition in [7] stood at 30%.

Turning to `COc1cc(Nc2nc(C)cc(-c3cnn4nc(OC)ccc34)n2)cc(C(F)(F)F)c1`, the % of control came to 89% in [8] and 79% in assay [9].

Turning to `CC(=O)c1cc(-c2ccccc2OCC2CC2)c2ncccn12`, the % of control in assay [10] was found to be 95%.

`CCC(=O)N1CCN(c2ccc(-n3c(=O)ccc4cnc5ccc(-c6cnc7ccccc7c6)cc5c43)cc2C(F)(F)F)CC1` showed a % of control in [11] of 100%.
